In patent US10894777B2, “TG2 inhibitor piperazine compounds and uses thereof” (UNIVERSITY OF OTTAWA, priority 2016, dated 2021):

Assays:
Format in all cases: cell-based, human
SCC-13 cells = assay: Matrigel invasion assay, SCC-13 cells
Protocol: Invasion assay. Matrigel was diluted in 0.01 M Tris-HCl/0.7% NaCl, filter sterilized and 0.1 ml was used to coat individual BD BioCoat inserts (Millicell-PCF, 0.4 μm, 12 mm, PIHP01250). Cells (25,000) were plated in 100 μl in growth medium, supplemented with 1% FCS, in the upper chamber. The lower chamber contained growth medium supplemented with 10% FCS. After migration, the membranes were harvested and excess cells were removed from the upper membrane surface. The membrane was fixed in 4% paraformaldehyde, stained with 1 μg/m DAPI, and the underside of the membrane was photographed with an inverted fluorescent microscope and the number of cells counted.
Invasion assay. Matrigel (BD Biolabs) was diluted into 2 mL of 0.01 M Tris-HC/0.7% NaCl to a final concentration of 300 μg/mL, filter sterilized and 0.1 mL was added per BD BioCoat cell insert. After 2 hours, near-confluent SCC13-TG2-shRNA2 and SCC13-Control-shRNA cells were harvested and 25,000 cells were plated in 100 μL of growth media containing 1% FCS atop the Matrigel layer. Growth medium containing 10% FCS was added to the bottom chamber followed by an overnight incubation at 37° C. The following day a cotton swab was used to remove cells from the upper side of the membrane, the membrane was rinsed with phosphate-buffered saline, fixed with 4% paraformaldehyde for 10 min, washed again, and stained with 1 μg/mL DAPI for 10 min. The underside of the membrane was viewed with an inverted fluorescent microscope and nuclei were counted.
Invasion assay. Matrigel (BD Biolabs) was diluted into 2 ml of 0.01 M Tris-HC/0.7% NaCl to a final concentration of 300 μg/ml, filter sterilized, and 0.1 ml was added per BD BioCoat cell insert (8 microns pore size, surface area 0.3 cm2). After 2 h, near-confluent SCC-13 cells were harvested and 25,000 cells were plated in 100 μl of growth media containing 1% FCS atop the Matrigel layer. Growth medium containing 10% FCS was added to the bottom chamber followed by an overnight incubation at 37° C. The following day a cotton swab was used to remove cells from the upper side of the membrane, the membrane was rinsed with PBS, fixed with 4% paraformaldehyde, washed again, and stained with 1 μg/ml DAPI for 10 min. The underside of the membrane was viewed with an inverted fluorescent microscope, and nuclei were counted (Adhikary, G. et al., PLoS One 8:e84324, 2013).

[1] = tested on: TG2 fusion protein mCer-TG2-YFP; assay: Fluorescence lifetime imaging (FLIM) of TG2 conformation, HaCaT cells; conditions: 5 μM
Protocol: HaCaT cells were electroporated with mCer-TG2 or […] and then treated with 0 or 5 μM of the indicated inhibitor and fluorescent lifetime was monitored. […] HaCaT cells were preloaded with fluorescein cadaverine, treated with the indicated inhibitor and then challenged with calcium ionophore, washed and assayed for FC incorporation. […] The beads were then washed, boiled in Laemmli buffer and electrophoresed for immunoblot detection of TG2. Cell equivalent quantities of total and bound samples were electrophoresed to facilitate comparison of GTP bound versus total. […] Experiments were performed as described in FIGS. 31 (F) and (G).
Fluorescence lifetime imaging. Fluorescence lifetime images were acquired using FLIM system (Alba 5 from ISS). […] Emission was observed through bandpass filter 480/35 nm (Chroma Technology) and detected by a photomultiplier H7422-40 (Hamamatsu). FLIM data were acquired using time-domain modality (SPC-830 TCSPC module from Becker and Hickl GmbH). […] To account for intensity heterogeneity within single intensity images, two to five consecutive scans were acquired and summed to build FLIM intensity image for lifetime analysis. […] FLIM data were analyzed using VistaVision Suite software (Vista v.213 from ISS). Lifetime images were generated by fitting data using single exponential intensity decay model. Intensity threshold for lifetime analysis was set of at least 3-fold above the intensity of dim cells and fitting procedure was performed for binned pixels at level of 3 (7×7 pixels). Lifetime distribution within image is represented with histogram showing pixel frequency of specific lifetime. The average lifetime values with standard deviations were calculated based on all processed pixels in lifetime image. FRET values were calculated according to the formula ET=1−(τDA/τD), where τD is the lifetime of donor (mCer-TG2) and τDA is the lifetime of donor-acceptor pair (mCer-TG2—YFP).

HaCaT cells = assay: Spheroid formation assay, HaCaT cells; conditions: 20 μM, 48 h
Protocol: Spheroid formation assay. Spheroid formation assays were as reported previously (Adhikary, G. et al., PLoS One 8:e84324, 2013), except that the spheroids were grown in 6-well ultralow attachment Costar cluster dishes (Corning).

Row | Compound | matrigel invasion (SCC-13 cells; 20 μM pretreatment 1 hour, 24 hours) | invasion (SCC-13 cells; 20 μM pretreatment 2 h, 30 h) | matrigel invasion (SCC-13 cells; 20 μM, 24 h) | fluorescence lifetime / TG2 structure [1] | ECS cell spheroid formation (HaCaT cells)
1 | C=CC(=O)NCCCC[C@H](NC(=O)OCc1ccccc1)C(=O)NCCOCCOCCNS(=O)(=O)c1cccc2c(N(C)C)cccc12 [NC9] | reduced matrigel invasion | reduced | inhibited | increased fluorescence lifetime | suppressed
2 | C=CC(=O)NCCCC[C@H](NC(=O)OCc1ccccc1)C(=O)N1CCN(S(=O)(=O)c2cccc3c(N(C)C)cccc23)CC1 [VA4, (S)-benzyl(6-acrylamido-1-(4-((5-(dimethylamino)naphthalen-1-yl)sulfonyl)piperazin-1-yl)-1-oxohexan-2-yl)carbamate] | – | – | inhibited | increased fluorescence lifetime | suppressed
3 | C=CC(=O)NCCCC[C@H](NC(=O)OCc1ccccc1)C(=O)N1CCN(C(=O)c2cc3ccc(O)cc3oc2=O)CC1 [VA5, (S)-Benzyl(6-acrylamido-1-(4-(7-hydroxy-2-oxo-2H-chromene-3-carbonyl)piperazin-1-yl)-1-oxohexan-2-yl)carbamate] | – | – | inhibited | increased fluorescence lifetime | suppressed
